Structures are written as SMILES. pIC50: −log10 of the molar value.

In this test the test system is B cell receptor-mediated activation of B cells in human blood (CD69 expression). Description: Inhibition of B cell activation in whole blood measured by CD69 expression. The format is cell-based. The following applies: anti-IgM stimulation, 20 h, 50% decrease of CD69-positive cells that are also CD20-positive. On the procedure:
Inhibition of B Cell Activation in Whole Blood Measured by CD69 Expression
A procedure to test the ability of Btk inhibitors to suppress B cell receptor-mediated activation of B cells in human blood is as follows:
Human whole blood (HWB) is obtained from healthy volunteers, with the following restrictions: 24 hr drug-free, non-smokers. Blood is collected by venipuncture into Vacutainer tubes anticoagulated with sodium heparin. Test compounds are diluted to ten times the desired starting drug concentration in PBS (20×), followed by three-fold serial dilutions in 10% DMSO in PBS to produce a nine point dose-response curve. 5.5 μl of each compound dilution is added in duplicate to a 2 ml 96-well V bottom plate (Analytical Sales and Services, #59623-23); 5.5 μl of 10% DMSO in PBS is added to control and no-stimulus wells. HWB (100 μl) is added to each well, and after mixing the plates are incubated at 37 C, 5% CO2, 100% humidity for 30 minutes. Goat F(ab′)2 anti-human IgM (Southern Biotech, #2022-14) (10 μl of a 500 μg/ml solution, 50 μg/ml final concentration) is added to each well (except the no-stimulus wells) with mixing and the plates are incubated for an additional 20 hours.
At the end of the 20 hour incubation, samples are incubated with florescent-probe-labeled anti-bodies (15 μl PE Mouse anti-Human CD20, BD Pharmingen, #555623, and/or 20 ul APC Mouse anti-Human CD69, BD Pharmingen #555533) for 30 minutes, at 37 C, 5% CO2, 100% humidity. Included are induced control, unstained and single stains for compensation adjustments and initial voltage settings. Samples are then lysed with 1 ml of 1× Pharmingen Lyse Buffer (BD Pharmingen #555899), and plates are centrifuged at 1800 rpm for 5 minutes. Supernatants are removed via suction and the remaining pellets are lysed again with another 1 ml of 1× Pharmingen Lyse Buffer, and plates are spun down as before. Supernatants are aspirated and remaining pellets are washed in FACs buffer (PBS+1% FBS). After a final spin, the supernantants are removed and pellets are resuspended in 180 μl of FACs buffer. Samples are transferred to a 96 well plate suitable to be run on the HTS 96 well system on the BD LSR II flow cytometer.
Using appropriate excitation and emission wavelengths for the fluorophores used, data are acquired and percent positive cell values are obtained using Cell Quest Software. Results are initially analyzed by FACS analysis software (Flow Jo). […] The IC50 values are calculated using XLfit software version 3, equation 201.

Usually pIC50 stands for the negative decadic logarithm of the IC50, by convention in mol/L. A high value points to a low IC50. Regarding `Cn1cc(-c2cccc(-n3ncc4cc(C(C)(C)C)cc(F)c4c3=O)c2CO)cc(NC2=NCCO2)c1=O` [Example I-40, 6-tert-Butyl-2-{3-[5-(4,5-dihydro-oxazol-2-ylamino)-1-methyl-6-oxo-1,6-dihydro-pyridin-3-yl]-2-hydroxymethyl-phenyl}-8-fluoro-2H-phthalazin-1-one], the pIC50 was 6.08.

Take `Cn1cc(-c2cccc(-n3ncc4cc(C(C)(C)C)cc(F)c4c3=O)c2CO)cc(Nc2ccc3c(n2)CCNC3)c1=O` [Example I-41, 6-tert-Butyl-8-fluoro-2-{2-hydroxymethyl-3-[1-methyl-6-oxo-5-(5,6,7,8-tetrahydro-[1,6]naphthyridin-2-ylamino)-1,6-dihydro-pyridin-3-yl]-phenyl}-2H-phthalazin-1-one]: the negative-log IC50 (pIC50) is 7.48. Then `CCNCc1ccc(Nc2cc(-c3cccc(-n4ncc5cc(C(C)(C)C)cc(F)c5c4=O)c3CO)cn(C)c2=O)nc1` [Example I-42, 6-tert-Butyl-2-{3-[5-(5-ethylaminomethyl-pyridin-2-ylamino)-1-methyl-6-oxo-1,6-dihydro-pyridin-3-yl]-2-hydroxymethyl-phenyl}-8-fluoro-2H-phthalazin-1-one], with 8.22; and `CC(C)NCc1ccc(Nc2cc(-c3cccc(-n4ncc5cc(C(C)(C)C)cc(F)c5c4=O)c3CO)cn(C)c2=O)nc1` [Example I-43, 6-tert-Butyl-8-fluoro-2-(2-hydroxymethyl-3-{5-[5-(isopropylamino-methyl)-pyridin-2-ylamino]-1-methyl-6-oxo-1,6-dihydro-pyridin-3-yl}-phenyl)-2H-phthalazin-1-one], with 7.82. The value for `Cn1cc(-c2cccc(-n3ncc4cc(C(C)(C)C)cc(F)c4c3=O)c2CO)cc(NC2=NCCCO2)c1=O` [Example I-44, 6-tert-Butyl-2-{3-[5-(5,6-dihydro-4H-[1,3]oxazin-2-ylamino)-1-methyl-6-oxo-1,6-dihydro-pyridin-3-yl]-2-hydroxymethyl-phenyl}-8-fluoro-2H-phthalazin-1-one] was 5.76; that for `Cn1cc(-c2cccc(-n3ncc4cc(C(C)(C)C)cc(F)c4c3=O)c2CO)cc(Nc2ccc(N3CC[N+](C)([O-])CC3)cn2)c1=O` [Example I-45, 6-tert-Butyl-8-fluoro-2-(2-hydroxymethyl-3-{1-methyl-5-[5-(4-methyl-4-oxy-piperazin-1-yl)-pyridin-2-ylamino]-6-oxo-1,6-dihydro-pyridin-3-yl}-phenyl)-2H-phthalazin-1-one] was 5.65. The value for `CC1CCOC(Nc2cc(-c3cccc(-n4ncc5cc(C(C)(C)C)cc(F)c5c4=O)c3CO)cn(C)c2=O)=N1` (stereo not shown) [Example I-46, 6-tert-Butyl-8-fluoro-2-{2-hydroxymethyl-3-[1-methyl-5-(4-methyl-5,6-dihydro-4H-[1,3]oxazin-2-ylamino)-6-oxo-1,6-dihydro-pyridin-3-yl]-phenyl}-2H-phthalazin-1-one] was 5.37; that for `CCNC(C)(C)c1ccc(Nc2cc(-c3cccc(-n4ncc5cc(C(C)(C)C)cc(F)c5c4=O)c3CO)cn(C)c2=O)nc1` [Example I-47, 6-tert-Butyl-2-(3-{5-[5-(1-ethylamino-1-methyl-ethyl)-pyridin-2-ylamino]-1-methyl-6-oxo-1,6-dihydro-pyridin-3-yl}-2-hydroxymethyl-phenyl)-8-fluoro-2H-phthalazin-1-one] was 8.22. Compound `CC(=O)NC(C)(C)c1ccc(Nc2cc(-c3cccc(-n4ncc5cc(C(C)(C)C)cc(F)c5c4=O)c3CO)cn(C)c2=O)nc1` [Example I-48, N-[1-(6-{5-[3-(6-tert-Butyl-8-fluoro-1-oxo-1H-phthalazin-2-yl)-2-hydroxymethyl-phenyl]-1-methyl-2-oxo-1,2-dihydro-pyridin-3-ylamino}-pyridin-3-yl)-1-methyl-ethyl]-acetamide] had a pIC50 of 7.33. The value for `CC1CCN=C(Nc2cc(-c3cccc(-n4ncc5cc(C(C)(C)C)cc(F)c5c4=O)c3CO)cn(C)c2=O)O1` (stereo not shown) [Example I-49, 6-tert-Butyl-8-fluoro-2-{2-hydroxymethyl-3-[1-methyl-5-(6-methyl-5,6-dihydro-4H-[1,3]oxazin-2-ylamino)-6-oxo-1,6-dihydro-pyridin-3-yl]-phenyl}-2H-phthalazin-1-one] was 5.50; that for `Cn1cc(-c2cccc(-n3ncc4cc(C(C)(C)C)cc(F)c4c3=O)c2CO)cc(Nc2ccn(C(C)(C)C)c(=O)n2)c1=O` [Example I-50, 6-tert-Butyl-2-{3-[5-(1-tert-butyl-2-oxo-1,2-dihydro-pyrimidin-4-ylamino)-1-methyl-6-oxo-1,6-dihydro-pyridin-3-yl]-2-hydroxymethyl-phenyl}-8-fluoro-2H-phthalazin-1-one] was 7.36. The value for `Cn1cc(-c2cccc(-n3ccc4cc(C5CC5)cc(F)c4c3=O)c2CO)cc(Nc2ccc(C(=O)N3CCOCC3)cn2)c1=O` [Example I-51, 6-Cyclopropyl-8-fluoro-2-(2-hydroxymethyl-3-{1-methyl-5-[5-(morpholine-4-carbonyl)-pyridin-2-ylamino]-6-oxo-1,6-dihydro-pyridin-3-yl}-phenyl)-2H-isoquinolin-1-one] was 7.64; that for `Cn1cc(-c2cccc(-n3ccc4cc(C5CC5)cc(F)c4c3=O)c2CO)cc(Nc2ccc(N3CCNCC3)cn2)c1=O` [Example I-52, 6-Cyclopropyl-8-fluoro-2-{2-hydroxymethyl-3-[1-methyl-6-oxo-5-(5-piperazin-1-yl-pyridin-2-ylamino)-1,6-dihydro-pyridin-3-yl]-phenyl}-2H-isoquinolin-1-one] was 7.24. Then `Cn1cc(-c2cccc(-n3ccc4cc(C5CC5)cc(Cl)c4c3=O)c2CO)cc(Nc2ccc(C(=O)N3CCOCC3)cn2)c1=O` [Example I-53, 8-Chloro-6-cyclopropyl-2-(2-hydroxymethyl-3-{1-methyl-5-[5-(morpholine-4-carbonyl)-pyridin-2-ylamino]-6-oxo-1,6-dihydro-pyridin-3-yl}-phenyl)-2H-isoquinolin-1-one], with 6.22; and `CN1CCN(c2ccc(Nc3cc(-c4cccc(-n5ccc6cc(C7CC7)cc(F)c6c5=O)c4CO)cn(C)c3=O)nc2)CC1` [Example I-54, 6-Cyclopropyl-8-fluoro-2-(2-hydroxymethyl-3-{1-methyl-5-[5-(4-methyl-piperazin-1-yl)-pyridin-2-ylamino]-6-oxo-1,6-dihydro-pyridin-3-yl}-phenyl)-2H-isoquinolin-1-one], with 7.85. With `CN1CCN(c2ccc(Nc3cc(-c4cccc(-n5ccc6cc(C7(C)CC7)cc(F)c6c5=O)c4CO)cn(C)c3=O)nc2)CC1` [Example I-55, 8-Fluoro-2-(2-hydroxymethyl-3-{1-methyl-5-[5-(4-methyl-piperazin-1-yl)-pyridin-2-ylamino]-6-oxo-1,6-dihydro-pyridin-3-yl}-phenyl)-6-(1-methyl-cyclopropyl)-2H-isoquinolin-1-one], the negative logarithm of the IC50 (pIC50) is 7.80. The pIC50 values of the last two compounds are within 0.2 log units of each other. On to `Cn1cc(-c2cccc(-n3ccc4cc(C5CC5)cc(F)c4c3=O)c2CO)cc(Nc2ccc(N3CCC(C)(O)CC3)cn2)c1=O` [Example I-57, 6-Cyclopropyl-8-fluoro-2-{2-hydroxymethyl-3-[5-(4-hydroxy-4-methyl-3,4,5,6-tetrahydro-2H-[1,3′]bipyridinyl-6′-ylamino)-1-methyl-6-oxo-1,6-dihydro-pyridin-3-yl]-phenyl}-2H-isoquinolin-1-one], for which the pIC50 is 7.74. The value for `Cn1cc(-c2cccc(-n3ccc4cc(C(C)(C)O)cc(F)c4c3=O)c2CO)cc(Nc2ccc(N3CCC(C)(O)CC3)cn2)c1=O` [Example I-58, 8-Fluoro-6-(1-hydroxy-1-methyl-ethyl)-2-{2-hydroxymethyl-3-[5-(4-hydroxy-4-methyl-3,4,5,6-tetrahydro-2H-[1,3′]bipyridinyl-6′-ylamino)-1-methyl-6-oxo-1,6-dihydro-pyridin-3-yl]-phenyl}-2H-isoquinolin-1-one] was 8.22. The value for `CN1CCN(c2ccc(Nc3cc(-c4cccc(-n5ccc6cc(C(C)(C)O)cc(F)c6c5=O)c4CO)cn(C)c3=O)nc2)CC1` [Example I-59, 8-Fluoro-6-(1-hydroxy-1-methyl-ethyl)-2-(2-hydroxymethyl-3-{1-methyl-5-[5-(4-methyl-piperazin-1-yl)-pyridin-2-ylamino]-6-oxo-1,6-dihydro-pyridin-3-yl}-phenyl)-2H-isoquinolin-1-one] was 8.52.
